In patent publication US20260055051A1, “Compound with anti-tumor activity, preparation method therefor, and use thereof” (Ocean University of China, priority 2022, published 2026):

Columns and labels:
[1] = test system: human cervical cancer cell line hela; experiment: In vitro tumor cell proliferation inhibition assay (SRB method), hela; format: cell-based; settings: 72 hours, SRB, mean of triplicate experiments, read-out: IC50 against hela
Procedure: (§1) Sulforhodamine B Colorimetric Method (SRB Method) and MTT Colorimetric Method (MTT Method)
(§2) Human lung cancer cell line A549, human liver cancer cell line HepG2, human colon cancer cell line HCT116, human colon cancer cell line HT-29, human leukemia cell line K562, human cervical cancer cell line hela, and human breast cancer cell line MCF-7, all provided by the Shanghai Cell Bank, Chinese Academy of Sciences.
(§3) A549, HepG2, HCT116, HT-29, K562, hela, and MCF-7 cells were cultured respectively in 1640, DMEM, 5A, 5A, 1640, DMEM, and 1640 culture media containing 10 wt % heat-inactivated FBS (fetal bovine serum), 2 mM L-glutamine, 100 U/mL penicillin and […] streptomycin, in a cell incubator at 37° C. and 5 vol % CO2. The medium was replaced every two days. After the A549, HepG2, HCT116, HT-29, hela, and MCF-7 cells were confluent, they were digested with 0.05% (w/v) trypsin-EDTA at 37° C., passaged, and maintained in the logarithmic growth phase suitable for testing. The K562 suspension cells were passaged without digestion, and maintained in the logarithmic growth phase suitable for testing. The A549, HepG2, HCT116, HT-29, K562, hela, and MCF-7 cells in the logarithmic growth phase were inoculated to 96-well plates at 5000, 5000, 5000, 5000, 6000, 5000, 5000 per well, respectively, and cultured at 37° C. for 24 h.
(§4) Then various concentrations of test samples were added. The positive control group was doxorubicin hydrochloride (final concentration was 1 μM), the solvent control group was an equal volume of DMSO, and the blank control group was an equal volume of a culture medium, with 4 replicate wells for each concentration. After the A549, HepG2, HCT116, HT-29, hela, and MCF-7 cells were treated with the test drugs for 72 hours, the cells in each well were fixed with 50% (m/v) cold trichloroacetic acid (TCA) and stained with SRB. Then […] of Tris solution was added, and the OD value at the wavelength of 540 nm was measured using a microplate reader. For K562 cells, after 72 hours of treatment with the test drugs, […] of 5 mg/mL MTT was added, and the cells were incubated at 37° C. for 4 hours. Next, […] of a triplet solution (10% SDS, 5% isobutanol, 12 mM HCl) was added, followed by further incubation for 12 to 20 hours. The OD value at the wavelength of 570 nm was measured using a microplate reader.
(§5) The tumor cell growth inhibition rate was calculated according to the following equation: […]
(§6) in the equation, • OD540 control well is the absorbance of the control group; • OD540 dosing well is the absorbance of the test group.
(§7) IC50 values of the test drugs (calculated by GraphPad Prism 5 software) were the means of the results of triplicate experiments.

[2] = test system: A549, HepG2, HCT116, HT-29, K562, hela, and MCF-7 cell lines; experiment: In vitro tumor cell proliferation inhibition assay, summary over all 7 types of cells; format: cell-based; settings: Homo sapiens, upper bound over A549, HepG2, HCT116, HT-29, K562, hela, MCF-7
Procedure: as §1, §2, §3, §4, §5, §6, §7

[3] = test system: human lung cancer cell line A549; experiment: In vitro tumor cell proliferation inhibition assay (SRB method), A549; format: cell-based; settings: 72 hours, SRB; for IC50: mean of triplicate experiments, read-out: IC50 against A549; for inhibition at 10 µM: test compounds 10 μM, read-out: Inhibition rate on A549
Procedure: as §1, §2, §3, §4, §5, §6, §7

[4] = test system: human liver cancer cell line HepG2; experiment: In vitro tumor cell proliferation inhibition assay (SRB method), HepG2; format: cell-based; settings: 72 hours, SRB; for IC50: mean of triplicate experiments, read-out: IC50 against HepG2; for inhibition at 10 µM: test compounds 10 μM, read-out: Inhibition rate on HepG2
Procedure: as §1, §2, §3, §4, §5, §6, §7

[5] = test system: human colon cancer cell line HCT116; experiment: In vitro tumor cell proliferation inhibition assay (SRB method), HCT116; format: cell-based; settings: SRB; for IC50: HCT-116, 72 hours, mean of triplicate experiments, read-out: IC50 against HCT116; for inhibition at 10 µM: HCT-116, test compounds 10 μM, 72 hours, read-out: Inhibition rate on HCT116
Procedure: as §1, §2, §3, §4, §5, §6, §7

[6] = test system: human leukemia cell line K562; experiment: In vitro tumor cell proliferation inhibition assay (MTT method), K562; format: cell-based; settings: 72 hours, mean of triplicate experiments, read-out: IC50 against K562
Procedure: as §1, §2, §3, §4, §5, §6, §7

[7] = test system: A549 cells; experiment: A549 cell-BALB/c nude mouse subcutaneous tumor transplantation experiment; format: in vivo, BALB/c nude mice; settings: A549 model, test compound 0.5 mg/mL at 10 mL/kg tail vein, 15 times, 6 times; for inhibitory effect (inhibition rate of average tumor weight, FIG. 6): 5-fu 20 mg/kg; for average tumor volume at the end of the experiment: 5 times a week, 5-fu 20 mg/kg twice a week
Procedure: (§8) BALB/c nude mice were subcutaneously inoculated with A549, HCT116 and HT-29 cells to establish tumor transplantation models. • Solvent Control Group: 2% DMSO+normal saline+sodium carbonate (the molar ratio of the compound to sodium carbonate is 1:2) • 5-fluorouracil control group: 5-fluorouracil injection (20 mg/kg);
(§9) Test compound group: 1 mg of a test compound was fully dissolved in […] DMSO, and then diluted with normal saline to 0.5 mg/mL. 2 mL was used each time, freshly prepared before use on the same day.
(§10) Eight mice were in each group.
(§11) The solvent control group and the test compound group were administered at a dose of 10 mL/kg via tail vein injection (the dose for each administration was calculated based on the body weight on that day), 5 times a week, for a total of 15 times. The animals were euthanized after the last administration.
(§12) The 5-fluorouracil control group was administered twice a week for a total of 6 times.
(§13) The body weight and tumor diameter were measured twice a week during the administration period. Tumors and the spleen were removed and weighed after euthanasia. The tumor volume, relative tumor volume (RTV), relative tumor growth rate (T/C %), tumor volume inhibition rate (IRTV%), and tumor weight inhibition rate (IRTW%) were calculated. Data for animals that died accidentally were only listed but excluded from statistical analysis.

[8] = test system: human breast cancer cell line MCF-7; experiment: In vitro tumor cell proliferation inhibition assay (SRB method), MCF-7; format: cell-based; settings: MCF7, 72 hours, SRB, mean of triplicate experiments, read-out: IC50 against MCF-7
Procedure: as §1, §2, §3, §4, §5, §6, §7

[9] = test system: human colon cancer cell line HT-29; experiment: In vitro tumor cell proliferation inhibition assay (SRB method), HT-29; format: cell-based; settings: 72 hours, SRB, mean of triplicate experiments, read-out: IC50 against HT-29
Procedure: as §1, §2, §3, §4, §5, §6, §7

[10] = test system: HT-29 cells; experiment: HT-29 cell-BALB/c nude mouse subcutaneous tumor transplantation experiment; format: in vivo, BALB/c nude mice; settings: HT-29 model, test compound 0.5 mg/mL at 10 mL/kg tail vein, 15 times, 6 times; for inhibitory effect (inhibition rate of average tumor weight, FIG. 6): 5-fu 20 mg/kg; for average tumor volume at the end of the experiment: 5 times a week, 5-fu 20 mg/kg twice a week
Procedure: as §8, §9, §10, §11, §12, §13

[11] = test system: HCT116 cells; experiment: HCT116 cell-BALB/c nude mouse subcutaneous tumor transplantation experiment; format: in vivo, BALB/c nude mice; settings: HCT116 model, test compound 0.5 mg/mL at 10 mL/kg tail vein, 15 times, 6 times; for average tumor volume at the end of the experiment: 5 times a week, 5-fu 20 mg/kg twice a week; for inhibitory effect (inhibition rate of average tumor weight, FIG. 6): 5-fu 20 mg/kg
Procedure: as §8, §9, §10, §11, §12, §13

[12] = Body weight of tumor-transplanted mice during administration; format: in vivo; settings: A549, HCT116 and HT-29 transplanted mice, during administration period
Procedure: as §8, §9, §10, §11, §12, §13

Row | SMILES | IC50 [1] [µM] | IC50 [2] [µM] | IC50 [3] [µM] | inhibition at 10 µM [3] [%] | IC50 [4] [µM] | inhibition at 10 µM [4] [%] | IC50 [5] [µM] | inhibition at 10 µM [5] [%] | IC50 [6] [µM] | inhibitory effect (inhibition rate of average tumor weight, FIG. 6) [7] [%] | IC50 [8] [µM] | IC50 [9] [µM] | inhibitory effect (inhibition rate of average tumor weight, FIG. 6) [10] [%] | average tumor volume at the end of the experiment [11] [mm^3] | inhibitory effect (inhibition rate of average tumor weight, FIG. 6) [11] [%] | average tumor volume at the end of the experiment [7] [mm^3] | average tumor volume at the end of the experiment [10] [mm^3] | body weight compared to the solvent control (FIG. 2) [12]
1 | COc1c(CNC(=O)CCl)c(C)cc(C)c1CNC(=O)CCl [Compound I-4, N-(2-methoxy-3-chloroacetamidomethyl-4,6-dimethylbenzyl) chloroacetamide] | 9.38 | < 35.5 | 6.57 | 69 | 7.9 | 82.9 | 3.96 | 69.3 | 9.36 | 22.05 | 5.75 | 17.6 | 23.90 | 574.36 | 29.86 | – | – | –
2 | Cc1cc(O)c(CNC(=O)CCl)c(C)c1Cl [Compound I-7, N-(2,4-dimethyl-3-chloro-6-hydroxybenzyl) chloroacetamide] | 9.68 | < 35.5 | 8.11 | 55 | 8.61 | 95.8 | 7.44 | 95.1 | 12.7 | 33.56 | 5.75 | 28.9 | 26.52 | 624.48 | – | 559.37 | – | –
3 | CC(=O)NCc1c(C)cc(O)c(C)c1C [Compound I-6, N-(2,3,6-trimethyl-4-hydroxybenzyl) acetamide] | 8.86 | < 35.5 | 5.95 | 94.9 | 8.36 | 81.1 | 7.36 | 96.6 | 9.74 | 35.19 | 6.98 | 35.4 | 32.07 | – | – | 492.12 | 559.37 | –
4 | O=c1[nH]cc(F)c(=O)[nH]1 [Compound 5-fu, 5-fluorouracil, reference compound] | – | – | – | – | – | – | – | – | – | 43.11 | – | – | 44.60 | 599.83 | 44.81 | 322.03 | 658.02 | significant weight loss
